From US8110585B2, “Bicyclic compound and pharmaceutical use thereof” (Takeda Pharmaceutical Company Limited, priority 2007, dated 2012)

Assays:
[1] = biological target: T1, human melatonin 2 receptors (human MT2 receptors) (Homo sapiens, UniProt P49286); assay: Melatonin receptor binding inhibitory test, 2-[125I] Iodomelatonin, MT2; conditions: membrane fraction of CHO-hMT2 cells, 25° C. for 2.5 hr, read-out: binding inhibitory activity as IC50 value for MT2
T1 construct: expressed in transfected cells; membrane fraction
T1 sequence (P49286 1-362): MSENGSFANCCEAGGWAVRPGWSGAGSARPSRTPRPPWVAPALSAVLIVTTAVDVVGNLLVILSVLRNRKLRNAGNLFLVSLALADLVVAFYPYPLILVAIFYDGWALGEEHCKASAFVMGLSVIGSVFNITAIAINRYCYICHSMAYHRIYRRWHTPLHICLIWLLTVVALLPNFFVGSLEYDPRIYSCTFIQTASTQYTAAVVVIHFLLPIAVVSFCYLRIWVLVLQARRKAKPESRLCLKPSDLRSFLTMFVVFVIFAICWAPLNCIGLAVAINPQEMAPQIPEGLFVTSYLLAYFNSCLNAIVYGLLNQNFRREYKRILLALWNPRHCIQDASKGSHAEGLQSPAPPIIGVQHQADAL
Method: (§1) Melatonin Receptor Binding Inhibitory Test
(2) Preparation of CHO-hMT2 Cells Expressing Human Melatonin 2 Receptors
A cDNA fragment (SEQ ID NO: 2) encoding full-length of human melatonin 2 receptors (human MT2 receptors) was incorporated into expression vector pCMV-Script (Stratagene, #212220) to give the plasmid that was pCMV-human MT2 receptors expression vector for animal cell expression. CHO-K1 cells (ATCC, #CCL-61) were plated at the concentration of 1.5×10^5 cells/cm^2 in a 6 well plate (ASAHI TECHNO GLASS), and cultured under the conditions of 37° C., 5% CO2 for 24 hr. For gene transfection, solution obtained by blending pCMV-human MT2 receptors expression vector (1.9 μg), Lipofectamine Transfection Reagent (Invitrogen, #18324-012) (11.3 μL) and Minimum Essential Medium Eagle (MEM) medium (Sigma, M8042) (93.8 μL), and reacting at room temperature for 20 min was added to the cells per one well. The transfected cells were cultured in MEM medium containing 10% FBS (Life Technology) and 300 μg/mL Geneticin (GIBCO, #10131), and the cell line that stably expressed the plasmid gene was selected. By a receptor binding assay using 2-[^125I] Iodomelatonin, CHO-hMT2 cell line showing specific binding of 2-[^125I] Iodomelatonin was selected from the obtained clones.
(§2) (3) Preparation of Cellular Membrane Fraction of CHO Cell (CHO-hMelR7 and CHO-hMT2) Stably Expressing Human MT1 and MT2 Receptors
(§3) CHO-hMelR7 and CHO-hMT2 cells were plated using Cellfactory (Nunc, #170009) under the conditions of 1×10^8 cells/2000 mL/flask. The cells were grown to confluent, and recovered by the following method. As the medium for CHO-hMelR7 and CHO-hMT2, MEM a containing 10% FBS and penicillin/streptomycin was used. […]
(§4) The medium was discarded, cells were washed twice with 200 mL of EDTA/PBS(−), 200 mL of EDTA/PBS(−) was further added, and the cells were stood still at room temperature for 20 min until they were released. The cells were recovered in four 50 mL tubes (Becton Dickinson, #352070), and centrifuged at 1,500 rpm for 10 min at 4° C. using a low speed cooling centrifuge (Hitachi, CF7D2). The supernatant was discarded, the pellets in the four tubes were suspended in 10 mL of PBS(−), and combined in one tube (Becton Dickinson, #352070). The mixture was further centrifuged at 1,500 rpm for 10 min at 4° C., and the obtained pellets were suspended in 20 mL of ice-cooled homogenizing buffer [10 mM NaHCO3, 5 mM EDTA, Protease inhibitor Complete (Roche), pH 7.4]. The cell suspension was homogenized 3 times using a polytron homogenizer at 20,000 rpm for 30 sec. The obtained homogenate was centrifuged (2,000 rpm, 10 min, 4° C.) using a low speed cooling centrifuge. The supernatant was recovered in an ultracentrifugation tube and ultracentrifuged (40,000 rpm, 60 min, 4° C.) using an ultracentrifuge (Beckman, L-90K). To the obtained pellets was added a suspending buffer [50 mM Tris-HCl, 1 mM EDTA, Protease inhibitor Complete (Roche), pH 7.4], and the pellets were suspended by pipetting. The protein concentration of this suspension was measured, diluted to 2 mg/mL to give cellular membrane fractions of CHO-hMelR7 and CHO-hMT2 cells. The membrane fractions were dispensed to 1.5 mL tubes (Eppendorf, #0030120.086) by 100 μL, preserved in a freezer (−80° C.) and used for a binding assay. Protein was quantified using BCA protein assay kit (Pierce) with BSA as the standard.
(§5) (4) Preparation of Membrane Fraction Suspension
(§6) Immediately before use, the membrane fractions of CHO-hMelR7 and CHO-hMT2 cells of the above-mentioned (3) were diluted 20-fold with assay buffer (50 mM Tris-HCl, pH 7.7).
(§7) (5) Preparation of 2-[^125I] Iodomelatonin Solution
(§8) 2-[^125I] Iodomelatonin (#NEX236, PerkinElmer) was diluted with the assay buffer to 400 pM for MT1 and 1 nM for MT2.
The assay buffer (80 μL) of the above-mentioned (4) was added to each well of a 96-well plate (type 3363, Corning). […]

[2] = biological target: T2, human melatonin 1 receptors (human MT1 receptors) (Homo sapiens, UniProt P48039); assay: Melatonin receptor binding inhibitory test, 2-[125I] Iodomelatonin, MT1; conditions: membrane fraction of CHO-hMelR7 cells, 25° C. for 2.5 hr, read-out: binding inhibitory activity as IC50 value for MT1
T2 construct: expressed in transfected cells; membrane fraction
T2 sequence (P48039 whole entry): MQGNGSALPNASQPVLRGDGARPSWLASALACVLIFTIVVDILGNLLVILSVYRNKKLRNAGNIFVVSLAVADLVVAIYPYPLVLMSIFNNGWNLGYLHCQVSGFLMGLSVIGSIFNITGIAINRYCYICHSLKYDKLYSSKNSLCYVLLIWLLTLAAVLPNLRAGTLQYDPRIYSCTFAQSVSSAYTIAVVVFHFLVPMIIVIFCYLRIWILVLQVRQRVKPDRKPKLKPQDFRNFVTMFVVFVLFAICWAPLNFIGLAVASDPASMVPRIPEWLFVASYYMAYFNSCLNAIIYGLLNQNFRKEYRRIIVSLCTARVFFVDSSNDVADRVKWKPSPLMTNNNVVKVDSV
Method: as §1
(1) Preparation of CHO-hMelR7 Cells expressing Human Melatonin 1 Receptors
A cDNA fragment (SEQ ID NO: 1) encoding full-length of human melatonin 1 receptors (human MT1 receptors) was incorporated into expression vector pAKKO-111H (former name pAKKO1.11H; Biochim Biophys Acta. Vol. 1219(2), pp. 251-259, 1994) to give plasmid pAKKO-hMelR7 for animal cell expression. CHO/dhfr-cells (ATCC, #CRL-9096) were plated at a concentration of 0.3×10^6 cells/dish in a 6 cm culture dish (Becton Dickinson), and cultured under the conditions of 37° C., 5% CO2 for 48 hr. The cells were transfected with pAKKO-hMelR7 plasmid DNA (5 μg) using Cellphect Transfection Kit (Amersham, #27-9268-01). The transfected cells were cultured in Dulbecco's modified Eagle medium (DMEM) (Sigma, #D6046) containing 10% dialyzed FBS (Biowest, #S180D), 1× Non-Essential Amino Acid (Invitrogen, #11140-050) and 50 μg/mL Gentamycin (Invitrogen, #15750-060), and the cell line that stably expressed the plasmid gene was selected. By a receptor binding assay using 2-[^125I] Iodomelatonin, CHO-hMelR7 cell line showing specific binding of 2-[^125I] Iodomelatonin was selected from the obtained clones.
as §2, §3, §4, §5, §6, §7, §8
The assay buffer (80 μL) of the above-mentioned (4) was added to each well of a 96-well plate (type 3363, Corning). Then, a test compound (compound solution diluted with DMSO to 200-fold of the final measurement concentration) was added by 2 μL. […]

melting point	IC50 [1]	IC50 [2]	SMILES
136 to 138 °C	≤ 100 nM	≤ 100 nM	CC(=O)NCC1CC1c1c(-c2cccnc2)ccc2nn(C)cc12 (stereo not drawn) [Example 35, N-{[2-(2-methyl-5-pyridin-3-yl-2H-indazol-4-yl)cyclopropyl]methyl}acetamide]
189 to 192 °C	≤ 100 nM	≤ 100 nM	CC(=O)NCC1CC1c1c(C#N)ccc2nn(C)cc12 (stereo not drawn) [Example 36, N-{[2-(5-cyano-2-methyl-2H-indazol-4-yl)cyclopropyl]methyl}acetamide]
104 to 105 °C	≤ 100 nM	≤ 100 nM	COc1ccc2nn(C)cc2c1C1CC1CNC(C)=O (stereo not drawn) [Example 37, N-{[2-(5-methoxy-2-methyl-2H-indazol-4-yl)cyclopropyl]methyl}acetamide]
147 to 148 °C	≤ 100 nM	≤ 100 nM	CC(=O)NCC1CC1c1ccc(F)c2nn(C)cc12 (stereo not drawn) [Example 38, N-{[2-(7-fluoro-2-methyl-2H-indazol-4-yl)cyclopropyl]methyl}acetamide]
153 to 155 °C	≤ 100 nM	≤ 100 nM	CC(=O)NCC1CC1c1ccc(Cl)c2nn(C)cc12 (stereo not drawn) [Example 39, N-{[2-(7-chloro-2-methyl-2H-indazol-4-yl)cyclopropyl]methyl}acetamide]
69 to 70 °C	≤ 100 nM	≤ 100 nM	CC(=O)NC[C@H]1C[C@@H]1c1cccn2nc(C)cc12 [Example 43, N-{[(1S,2S)-2-(2-methylpyrazolo[1,5-a]pyridin-4-yl)cyclopropyl]methyl}acetamide]
100 to 101 °C	≤ 100 nM	≤ 100 nM	CC(=O)NC[C@@H]1C[C@H]1c1cccn2nc(C)cc12 [Example 44, N-{[(1R,2R)-2-(2-methylpyrazolo[1,5-a]pyridin-4-yl)cyclopropyl]methyl}acetamide]

Further lines, the compound ahead of its results:

SMILES	melting point	IC50 [1]	IC50 [2]
CCC(=O)NC[C@@H]1C[C@H]1c1cccc2nn(C)cc12 [Example 13, N-{[(1R,2R)-2-(2-methyl-2H-indazol-4-yl)cyclopropyl]methyl}propanamide]	78 to 80 °C	≤ 100 nM	≤ 100 nM
CCn1cc2c(C3CC3CNC(C)=O)cccc2n1 (stereo not drawn) [Example 16, N-{[2-(2-ethyl-2H-indazol-4-yl)cyclopropyl]methyl}acetamide]	155 to 159 °C	≤ 100 nM	≤ 100 nM
CCC(=O)NCC1CC1c1cccc2nn(CC)cc12 (stereo not drawn) [Example 17, N-{[2-(2-ethyl-2H-indazol-4-yl)cyclopropyl]methyl}propanamide]	114 to 115 °C	≤ 100 nM	≤ 100 nM
CC(=O)NC[C@@H]1C[C@H]1c1cccc2nn(C)c(F)c12 [Example 19, N-{[(1R,2R)-2-(3-fluoro-2-methyl-2H-indazol-4-yl)cyclopropyl]methyl}acetamide]	138 to 139 °C	≤ 100 nM	≤ 100 nM
CC(=O)NC[C@H]1C[C@@H]1c1c(F)ccc2nn(C)cc12 [Example 24, N-{[(1S,2S)-2-(5-fluoro-2-methyl-2H-indazol-4-yl)cyclopropyl]methyl}acetamide]	120 °C	≤ 100 nM	≤ 100 nM
CC(=O)NC[C@@H]1C[C@H]1c1c(F)ccc2nn(C)cc12 [Example 25, N-{[(1R,2R)-2-(5-fluoro-2-methyl-2H-indazol-4-yl)cyclopropyl]methyl}acetamide]	120 °C	≤ 100 nM	≤ 100 nM
CC(=O)NCC1CC1c1c(Cl)ccc2nn(C)cc12 (stereo not drawn) [Example 27, N-{[2-(5-chloro-2-methyl-2H-indazol-4-yl)cyclopropyl]methyl}acetamide]	149 to 150 °C	≤ 100 nM	≤ 100 nM
CCC(=O)NCC1CC1c1c(Cl)ccc2nn(C)cc12 (stereo not drawn) [Example 28, N-{[2-(5-chloro-2-methyl-2H-indazol-4-yl)cyclopropyl]methyl}propanamide]	152 to 153 °C	≤ 100 nM	≤ 100 nM
CC(=O)NCC1CC1c1c(Br)ccc2nn(C)cc12 (stereo not drawn) [Example 29, N-{[2-(5-bromo-2-methyl-2H-indazol-4-yl)cyclopropyl]methyl}acetamide]	135 to 137 °C	≤ 100 nM	≤ 100 nM
CCC(=O)NCC1CC1c1c(Br)ccc2nn(C)cc12 (stereo not drawn) [Example 30, N-{[2-(5-bromo-2-methyl-2H-indazol-4-yl)cyclopropyl]methyl}propanamide]	119 to 121 °C	≤ 100 nM	≤ 100 nM
CC(=O)NCC1CC1c1c(C)ccc2nn(C)cc12 (stereo not drawn) [Example 31, N-{[2-(2,5-dimethyl-2H-indazol-4-yl)cyclopropyl]methyl}acetamide]	139 to 140 °C	≤ 100 nM	≤ 100 nM
CC(=O)NCC1CC1c1c(C2CC2)ccc2nn(C)cc12 (stereo not drawn) [Example 33, N-{[2-(5-cyclopropyl-2-methyl-2H-indazol-4-yl)cyclopropyl]methyl}acetamide]	102 to 103 °C	≤ 100 nM	≤ 100 nM
CC(=O)NCC1CC1c1c(-c2ccccc2)ccc2nn(C)cc12 (stereo not drawn) [Example 34, N-{[2-(2-methyl-5-phenyl-2H-indazol-4-yl)cyclopropyl]methyl}acetamide]	156 to 158 °C	≤ 100 nM	≤ 100 nM
